# According to patent US9333202B2, “Non-retinoid antagonists for treatment of age-related macular degeneration and stargardt disease” (THE TRUSTEES OF COLUMBIA UNIVERSITY IN THE CITY OF NEW YORK, priority 2012, dated 2016):
# “Also recorded” adds a separate entry of the source.
# Assays:
# human RBP4 = biological target: T1, human RBP4 (Homo sapiens, UniProt P02753); test: Scintillation proximity (SPA) RBP4 binding assay
# T1 construct: Untagged human RBP4 purified from urine of tubular proteinuria patients; purchased Fitzgerald Industries International; host or cells: human urine (tubular proteinuria patients)
# Method: Untagged human RBP4 purified from urine of tubular proteinuria patients was purchased from Fitzgerald Industries International. It was biotinylated using the EZ-Link Sulfo-NHS-LC-Biotinylation kit from Pierce following the manufacturer's recommendations. Binding experiments were performed in 96-well plates (OptiPlate, PerkinElmer) in a final assay volume of 100 μl per well in SPA buffer (1×PBS, pH 7.4, 1 mM EDTA, 0.1% BSA, 0.5% CHAPS). The reaction mix contained 10 nM ^3H-Retinol (48.7 Ci/mmol; PerkinElmer), 0.3 mg/well Streptavidin-PVT beads, 50 nM biotinylated RBP4 and a test compound. Nonspecific binding was determined in the presence of 20 μM of unlabeled retinol. The reaction mix was assembled in the dark under dim red light. The plates were sealed with clear tape (TopSeal-A: 96-well microplate, PerkinElmer), wrapped in the aluminum foil, and allowed to equilibrate 6 hours at room temperature followed by overnight incubation at +4° C. Radiocounts were measured using a TopCount NXT counter (Packard Instrument Company).
# RBP4-TTR interaction [1] = biological target: T2, RBP4-TTR interaction (Homo sapiens, UniProt P02753); test: HTRF/TR-FRET assay for retinol-dependent RBP4-TTR interaction (1 μM retinol); assay type: biochemical; set-up: human RBP4 fragment (amino acids 19-201) was expressed in the Gold(DE3)pLysS E. coli strain; made in house; host or cells: E. coli Gold(DE3)pLysS (Stratagene), pMAL-c4x vector
# Text: Bacterially expressed MBP-RBP4 and untagged TTR were used in this assay. For the use in the TR-FRET assay the maltose binding protein (MBP)-tagged human RBP4 fragment (amino acids 19-201) was expressed in the Gold(DE3)pLysS E. coli strain (Stratagene) using the […] vector. Following cell lysis, recombinant RBP4 was purified from the soluble fraction using the ACTA FPLC system (GE Healthcare) equipped with the 5-ml the MBP Trap HP column. Human untagged TTR was purchased from Calbiochem. Untagged TTR was labeled directly with Eu^3+ Cryptate-NHS using the HTRF Cryptate Labeling kit from CisBio following the manufacturer's recommendations. HTRF assay was performed in white low volume 384 well plates (Greiner-Bio) in a final assay volume of 16 μl per well. The reaction buffer contained 10 mM Tris-HCl pH 7.5, 1 mM DTT, 0.05% NP-40, 0.05% Prionex, 6% glycerol, and 400 mM KF. Each reaction contained 60 nM MBP-RBP4 and 2 nM TTR-Eu along with 26.7 nM of anti-MBP antibody conjugated with d2 (Cisbio). Titration of test compounds in this assay was conducted in the presence of 1 μM retinol. All reactions were assembled in the dark under dim red light and incubated overnight at +4° C. wrapped in aluminum foil. TR-FRET signal was measured in the SpectraMax M5e Multimode Plate Reader (Molecular Device). Fluorescence was excited at 337 nm and two readings per well were taken: Reading 1 for time-gated energy transfer from Eu(K) to d2 (337 nm excitation, 668 nm emission, counting delay 75 microseconds, counting window 100 microseconds) and Reading 2 for Eu(K) time-gated fluorescence (337 nm excitation, 620 nm emission, counting delay 400 microseconds, counting window 400 microseconds). The TR-FRET signal was expressed as the ratio of fluorescence intensity: Flu665/Flu620×10,000.
# RBP4-TTR interaction [2] = biological target: T2, RBP4-TTR interaction; test: TR-FRET (HTRF) assay for antagonists of retinol-induced RBP4-TTR interaction, agonist and antagonist mode (Example 2); assay type: biochemical; set-up: made in house; host or cells: E. coli; details: agonist mode, dose titration
# Text: TR-FRET (Time-Resolved Fluorescence Resonance Energy Transfer) is an assay format that can be used in characterization of compounds affecting protein-protein interactions (31-33). […] In the presence of retinol, RBP4-TTR interaction induces FRET that can be registered as increased ratio of […] fluorescence signals. Binding of a desired RBP4 antagonist displaces retinol and induces hindrance for RBP4-TTR interaction resulting in the decreased FRET signal (FIG. 7).
# The assay was developed using E. coli-expressed MBP-tagged RBP4 and commercially available TTR labeled directly with Eu3+ cryptate. In addition to MBP-RBP4 and Eu3+ (K)-TTR, a detector reagent anti-MBP-d2 was present in the mix. The assay was first optimized in the agonist mode; sensitivity and dynamic range of the assay was […] in respect to RBP4, TTR and detection reagent concentrations.
Binding to RBP4 in vitro (in words) (human RBP4),"IC50 (human RBP4; 10 nM 3H-retinol, 50 nM biotinylated RBP4, each value one experiment, read-out: IC50 in SPA-based RBP4 binding assay) [nM]","IC50 (RBP4-TTR interaction [1]; in the presence of 1 μM retinol, each value one experiment, read-out: IC50 in HTRF-based retinol-dependent RBP4-TTR interaction assay) [nM]",Induction of RBP4-TTR interaction (RBP4-TTR interaction [2]),SMILES,Antagonism of RBP4-TTR interaction in vitro (in words) (RBP4-TTR interaction [1])
bind to RBP4,19.9,199,,O=C(O)c1cnccc1NC(=O)N1CCC(c2ccccc2C(F)(F)F)CC1 [Compound 65],antagonize retinol-dependent RBP4-TTR interaction; also recorded: antagonize RBP4-TTR interaction in vitro at biologically significant concentrations
,,,did not induce RBP4-TTR interaction,"CC1=C(/C=C/C(C)=C/C=C/C(C)=C/C(=O)Nc2ccc(O)cc2)C(C)(C)CCC1 [fenretinide, N-(4-hydroxy-phenyl)retinamide]",
